From PubChem BioAssay (NCI) come the findings set out here.

Some test systems named below: SK-MEL-28 melanoma; HS 578T breast; SW-620 colon; T-47D breast; OVCAR-8 ovarian; NCI-H226 lung; OVCAR-5 ovarian; MCF7 breast; HCC-2998 colon; CAKI-1 renal; BT-549 breast; CCRF-CEM leukemia; RXF 393 renal; KM12 colon; M14 melanoma; ACHN renal; MOLT-4 leukemia; DU-145 prostate; MALME-3M melanoma.
What all share (test): NCI anticancer screen, dose series, 48 h

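Compound exposure: 48 hours, 5 concentrations, 96-well plates. At the TGI there is no net growth.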

As to `O=C(/C=C/c1ccccc1)Oc1ccc(C(=O)/C=C/c2ccccc2)cc1`, the TGI with SK-MEL-28 melanoma is 21.3 µM; in the experiment on HS 578T breast it was 69.4 µM; in the experiment on SW-620 colon, 18.6 µM; in the experiment with T-47D breast it was 15.6 µM; in the experiment on OVCAR-8 ovarian, 16 µM; in the experiment on NCI-H226 lung, above 100 µM. The TGI with OVCAR-5 ovarian was 21.4 µM; in the experiment with MCF7 breast it was above 31.6 µM; in the experiment with HCC-2998 colon it was 15.3 µM; in the experiment on CAKI-1 renal, 19.8 µM; in the experiment with BT-549 breast, 17.7 µM; in the experiment on CCRF-CEM leukemia, 10.9 µM. Besides, the TGI in the experiment on RXF 393 renal is above 60.6 µM; with KM12 colon, 15.9 µM; with M14 melanoma it was 23.3 µM; with ACHN renal it was 18.3 µM; with MOLT-4 leukemia, 16.8 µM; in the experiment with DU-145 prostate, 14.9 µM.
Take `COc1ccc(C2c3cn[nH]c3CC3CCCCC32)cc1` (configuration not stated): the TGI is 33.4 µM in the experiment on SK-MEL-28 melanoma; 35.4 µM in the experiment on SW-620 colon; 19 µM in the experiment on T-47D breast; 35.6 µM with OVCAR-8 ovarian; 36.9 µM in the experiment on NCI-H226 lung; 38.4 µM in the experiment with MALME-3M melanoma. Moreover, the TGI in the experiment with OVCAR-5 ovarian turned out to be 34.8 µM; in the experiment on MCF7 breast, 32.8 µM; with HCC-2998 colon it was 35 µM; in the experiment with CAKI-1 renal, 27.3 µM; in the experiment with BT-549 breast, 33.5 µM; in the experiment on CCRF-CEM leukemia, 53.9 µM. Moreover, the TGI was determined as 36.6 µM in the experiment with M14 melanoma, 33.1 µM with ACHN renal, 46.1 µM in the experiment with MOLT-4 leukemia and 26.3 µM in the experiment on DU-145 prostate.
On to `N#CNC(=NCc1ccccc1)N(Cc1ccccc1)Cc1ccccc1`, for which the TGI in the experiment with SK-MEL-28 melanoma was above 31.6 µM; in the experiment on SW-620 colon it was above 100 µM; in the experiment with T-47D breast, above 100 µM; with OVCAR-8 ovarian it was above 31.6 µM; with NCI-H226 lung, above 31.6 µM; in the experiment on OVCAR-5 ovarian, above 31.6 µM. In addition, the TGI is above 100 µM in the experiment on MCF7 breast; above 100 µM in the experiment on HCC-2998 colon; 89.6 µM with CAKI-1 renal; above 100 µM in the experiment with BT-549 breast; above 31.6 µM in the experiment with CCRF-CEM leukemia; above 100 µM in the experiment on RXF 393 renal. The TGI with KM12 colon was above 31.6 µM; in the experiment with M14 melanoma, above 31.6 µM; with MOLT-4 leukemia, 47.7 µM; in the experiment with DU-145 prostate it was above 100 µM.
On to `CN1CCOC1c1ccccc1O` (configuration not stated), for which the TGI with HS 578T breast, in the experiment on SW-620 colon, with T-47D breast, in the experiment on OVCAR-8 ovarian, with NCI-H226 lung and with MALME-3M melanoma was above 100 µM each time. Also, the TGI with OVCAR-5 ovarian, in the experiment on MCF7 breast, with CAKI-1 renal, in the experiment on BT-549 breast, in the experiment on CCRF-CEM leukemia and in the experiment with RXF 393 renal was above 100 µM in each case. Further, the TGI with KM12 colon, in the experiment on M14 melanoma, with ACHN renal and in the experiment with MOLT-4 leukemia was above 100 µM in each case.
Turning to `COC(=O)C(Cc1ccc2c(c1)CCC2)Cc1ccc2c(c1)CCC2`, the TGI in the experiment on SK-MEL-28 melanoma, in the experiment with HS 578T breast, in the experiment with SW-620 colon, in the experiment with T-47D breast, in the experiment on OVCAR-8 ovarian and with NCI-H226 lung was above 100 µM throughout. Moreover, the TGI with OVCAR-5 ovarian, with MCF7 breast, in the experiment on BT-549 breast, in the experiment on CCRF-CEM leukemia, with RXF 393 renal and in the experiment on KM12 colon was above 100 µM throughout. Besides, the TGI in the experiment with M14 melanoma, in the experiment with ACHN renal, in the experiment with MOLT-4 leukemia and with DU-145 prostate was above 100 µM in each case.
For the compound `O=C1NC(N2CCOCC2)=N/C1=C\c1ccco1`, the TGI in the experiment with SK-MEL-28 melanoma, with HS 578T breast, in the experiment on SW-620 colon, in the experiment with T-47D breast, in the experiment on OVCAR-8 ovarian and with NCI-H226 lung was above 100 µM throughout. Further, the TGI in the experiment on OVCAR-5 ovarian, in the experiment with MCF7 breast, with HCC-2998 colon, in the experiment on CAKI-1 renal, with BT-549 breast and in the experiment on CCRF-CEM leukemia was above 100 µM throughout. The TGI with RXF 393 renal, in the experiment with KM12 colon, with M14 melanoma, with ACHN renal, in the experiment on MOLT-4 leukemia and in the experiment with DU-145 prostate was above 100 µM in each case.
In the case of `O=C1c2ccccc2C(=O)N1n1c(Cc2ccc([N+](=O)[O-])cc2)n[nH]c1=O`, the TGI with SK-MEL-28 melanoma, in the experiment with SW-620 colon, in the experiment on T-47D breast, in the experiment on OVCAR-8 ovarian, in the experiment with NCI-H226 lung and in the experiment with MALME-3M melanoma was above 100 µM each time. The TGI in the experiment on OVCAR-5 ovarian, in the experiment on MCF7 breast, in the experiment on HCC-2998 colon, with CAKI-1 renal, in the experiment with BT-549 breast and in the experiment on RXF 393 renal was above 100 µM in each case. The TGI in the experiment on KM12 colon, with ACHN renal, in the experiment with MOLT-4 leukemia and with DU-145 prostate was above 100 µM throughout.
Consider `COc1ccc(-c2nc(SCC(=O)NNC(=S)Nc3ccccc3)[nH]c2-c2ccc(OC)cc2)cc1`, for which the TGI was 66.8 µM with SK-MEL-28 melanoma; 91.2 µM in the experiment on SW-620 colon; 85 µM in the experiment on T-47D breast; above 100 µM in the experiment on OVCAR-8 ovarian; above 100 µM in the experiment on MALME-3M melanoma; 49 µM in the experiment with OVCAR-5 ovarian. The TGI with MCF7 breast is 47.5 µM; with HCC-2998 colon, 29.3 µM; in the experiment with CAKI-1 renal it was above 100 µM; in the experiment on BT-549 breast, 57 µM; in the experiment on CCRF-CEM leukemia, above 100 µM; in the experiment on RXF 393 renal, 43.9 µM. For the same compound, the TGI was 85.9 µM in the experiment with KM12 colon; 34.6 µM with M14 melanoma; 64.2 µM with ACHN renal; 25.3 µM in the experiment with MOLT-4 leukemia; above 100 µM with DU-145 prostate.
Turning to `OC[C@H]1O[C@@H]2O[C@@](COCc3ccccc3)([C@H](OCc3ccccc3)[C@H]2O)[C@@H]1OCc1ccccc1`, the TGI was determined as 31.7 µM in the experiment on HS 578T breast; 38.6 µM in the experiment on SW-620 colon; 33 µM in the experiment with T-47D breast; 29.1 µM in the experiment on OVCAR-8 ovarian; 31.3 µM in the experiment with OVCAR-5 ovarian; 38.8 µM in the experiment on MCF7 breast. The TGI in the experiment with CAKI-1 renal was determined as 29.8 µM; with BT-549 breast it was 37.2 µM; in the experiment on CCRF-CEM leukemia it was 35.4 µM; in the experiment on KM12 colon, 32.1 µM; with M14 melanoma it was 32.9 µM; in the experiment on ACHN renal, 31.1 µM. The TGI in the experiment on MOLT-4 leukemia came out at 21.9 µM; in the experiment on DU-145 prostate, 30.1 µM.
